# Entries after “also recorded” stand apart in the source; their conditions may differ.
# Key:
# Assay type in all cases: in vivo
# α-synuclein [1] = test: Immunostaining for human α-synuclein in brain sections of α-synuclein transgenic mice; settings: vs vehicle
# Protocol: (§1) Farnesyl transferase inhibitors Zarnestra and OSI-754 were administered to mice of the α-synuclein transgenic line described in Masliah et al. (Masliah et al. “Dopaminergic loss and inclusion body formation in alpha-synuclein mice: implications for neurodegenerative disorders” Science 287(5456):1265-69, 2000; incorporated herein by reference). Animals from this line have α-synuclein neuronal inclusions in the cortex, hippocampus, and the olfactory bulb (Masliah et al. “Dopaminergic loss and inclusion body formation in alpha-synuclein mice: implications for neurodegenerative disorders” Science 287(5456):1265-69, 2000; incorporated herein by reference). Transgenic mice were orally administered either FTI in 20% cyclodextrin solution or the same volume of vehicle alone twice a day for 30 or 90 days. In some cases, non-transgenic mice also received vehicle twice a day for 30 to 90 days. At the end of treatment, mice were sacrificed, and the brains removed and hemisected. One hemisphere of each was fixed in 4% paraformaldehyde/PBS (pH 7.4), cryoperserved, then sectioned for histology. The other hemisphere was subdivided into four brain regions, including the cortex and hippocampus, that were homogenized and processed into cytoplasmic and membrane fractions.
# Formation of α-synuclein inclusions in the cortex and hippocampus was probed by immunostaining with an antibody for human α-synuclein. Cells positive for human α-synuclein were quantified. […] These regions were also analyzed for ubiquitin-immunoreactive inclusions and by the Campbell Switzer method of silver staining. Ubiquitin is known to be a constituent of Lewy Bodies and in the α-synculein inclusions found in the transgenic mouse line used in the study (Masliah et al. “Dopaminergic loss and inclusion body formation in alpha-synuclein mice: implications for neurodegenerative disorders” Science 287(5456):1265-69, 2000; incorporated herein by reference). […] Campbell-Switzer staining is a general marker of Lewy Body type inclusions (Uchihara et al. “Silver stainings distinguish Lewy bodies and glial cytoplasmic inclusions: comparison between Gallyas-Braak and Campbell-Switzer methods” Acta Neuropathol. (Berl.) 110(3):255-60, 2005; incorporated herein by reference).
# farnesylated UCH-L1 = test: Quantitative Western Blot of farnesylated UCH-L1 in cortex membrane fraction of α-synuclein transgenic mice; settings: 30 days
# Protocol: (§2) Farnesyl transferase inhibitors Zarnestra and OSI-754 were administered to mice of the α-synuclein transgenic line described in Masliah et al. (Masliah et al. “Dopaminergic loss and inclusion body formation in alpha-synuclein mice: implications for neurodegenerative disorders” Science 287(5456):1265-69, 2000; incorporated herein by reference). Animals from this line have α-synuclein neuronal inclusions in the cortex, hippocampus, and the olfactory bulb (Masliah et al. “Dopaminergic loss and inclusion body formation in alpha-synuclein mice: implications for neurodegenerative disorders” Science 287(5456):1265-69, 2000; incorporated herein by reference). Transgenic mice were orally administered either FTI in 20% cyclodextrin solution or the same volume of vehicle alone twice a day for 30 or 90 days. In some cases, non-transgenic mice also received vehicle twice a day for 30 to 90 days. At the end of treatment, mice were sacrificed, and the brains removed and hemisected. One hemisphere of each was fixed in 4% paraformaldehyde/PBS (pH 7.4), cryoperserved, then sectioned for histology. […]
# Farnesylated UCH-L1 in the cortex is contained in the membrane fraction. The amount of UCH-L1 was determined by quantitative Western Blot.
# Total α-synuclein levels were analyzed by a sandwich ELISA assay. […] The amount of farnesylated UCH-L1 was determined by quantitative Western Blot, then normalized to actin.
# [2] = test system: Lewy body-like inclusions; test: Campbell Switzer silver staining of Lewy body-like inclusions in α-synuclein transgenic mice; settings: 35 mg/kg twice a day, 30 days; vs vehicle
# Protocol: (§3) Farnesyl transferase inhibitors Zarnestra and OSI-754 were administered to mice of the α-synuclein transgenic line described in Masliah et al. (Masliah et al. “Dopaminergic loss and inclusion body formation in alpha-synuclein mice: implications for neurodegenerative disorders” Science 287(5456):1265-69, 2000; incorporated herein by reference). Animals from this line have α-synuclein neuronal inclusions in the cortex, hippocampus, and the olfactory bulb (Masliah et al. “Dopaminergic loss and inclusion body formation in alpha-synuclein mice: implications for neurodegenerative disorders” Science 287(5456):1265-69, 2000; incorporated herein by reference). Transgenic mice were orally administered either FTI in 20% cyclodextrin solution or the same volume of vehicle alone twice a day for 30 or 90 days. In some cases, non-transgenic mice also received vehicle twice a day for 30 to 90 days. At the end of treatment, mice were sacrificed, and the brains removed and hemisected. […]
# (§4) Formation of α-synuclein inclusions in the cortex and hippocampus was probed by immunostaining with an antibody for human α-synuclein. Cells positive for human α-synuclein were quantified. […] These regions were also analyzed for ubiquitin-immunoreactive inclusions and by the Campbell Switzer method of silver staining. […]
# [3] = test system: ubiquitin-immunoreactive inclusions; test: Ubiquitin immunohistochemistry in brain of α-synuclein transgenic mice; settings: 35 mg/kg twice a day, 30 days; vs vehicle
# Protocol: as §3, §4
# α-synuclein [4] = test: Sandwich ELISA of total α-synuclein in brain fractions of α-synuclein transgenic mice
# Protocol: as §1
# Total α-synuclein levels were analyzed by a sandwich ELISA assay similar to one previously described (El-Agnaf et al. “Detection of oligomeric forms of alpha-synuclein protein in human plasma as a potential biomarker for Parkinson's disease” FASEB J. 20(3):419-25, 2006; incorporated herein by reference). In the cortex of vehicle treated animals, α-synuclein protein levels in the α-synuclein transgenic line are greater than in non-transgenic mice in both cytoplasmic (FIG. 10) and membrane fractions (FIG. 11).
# [5] = test system: Neuronal Specific Nuclear Protein (NeuN); test: NeuN staining of cortex and hippocampus of α-synuclein transgenic mice; settings: 90 days of treatment
# Protocol: as §2
# Formation of α-synucleininclusions in the cortex and hippocampus was probed by immunostaining with an antibody for human α-synuclein. Cells positive for human α-synuclein were quantified. […]
# [6] = cortex, 35 mg/kg twice a day, 30 days, vs vehicle-treated transgenic mice
# [7] = cortex, 45 mg/kg twice a day, 30 days, vs vehicle
Structure (SMILES),"α-synuclein-positive cells per mm^2 (α-synuclein [1]; cortex, 35 mg/kg twice a day orally, 30 days)","α-synuclein-positive cells per mm^2 (α-synuclein [1]; hippocampus, 35 mg/kg twice a day orally, 30 days)","amount of farnesylated UCH-L1 (farnesylated UCH-L1; 35 mg/kg twice a day, 35 mg/kg)",inclusions by Campbell-Switzer staining [2],ubiquitin-immunoreactive inclusions [3],"levels of α-synuclein protein in the cortex (α-synuclein [4]; 35 mg/kg twice a day, 30 days)","α-synuclein protein levels, cytoplasmic fraction (α-synuclein [4]; [6])","α-synuclein protein levels, membrane fraction (α-synuclein [4]; [6])","α-synuclein-positive cells per mm^2 (α-synuclein [1]; cortex, 9 mg/kg twice a day, 90 days)","α-synuclein-positive cells per mm^2 (α-synuclein [1]; cortex, 45 mg/kg twice a day, 90 days)","α-synuclein-positive cells per mm^2 (α-synuclein [1]; hippocampus, 9 mg/kg twice a day, 90 days)","α-synuclein-positive cells per mm^2 (α-synuclein [1]; hippocampus, 45 mg/kg twice a day, 90 days)","amount of farnesylated UCH-L1, normalized to actin (farnesylated UCH-L1; 45 mg/kg twice a day)","α-synuclein protein levels, cytoplasmic fraction (α-synuclein [4]; cortex, 9 mg/kg twice a day, 90 days, vs vehicle)","α-synuclein protein levels, cytoplasmic fraction (α-synuclein [4]; [7])","α-synuclein protein levels, membrane fraction (α-synuclein [4]; [7])","α-synuclein protein levels, cytoplasmic fraction (α-synuclein [4]; cortex, 45 mg/kg twice a day, 90 days, vs vehicle)","α-synuclein protein levels, membrane fraction (α-synuclein [4]; hippocampus, 9 mg/kg twice a day, 90 days, vs vehicle)","α-synuclein protein levels, membrane fraction (α-synuclein [4]; hippocampus, 45 mg/kg twice a day, 90 days, vs vehicle)",neuronal morphology or density (NeuN staining) [5]
Cn1cncc1C(N)(c1ccc(Cl)cc1)c1ccc2c(c1)c(-c1cccc(Cl)c1)cc(=O)n2C (centres unmarked) [Zarnestra],significantly fewer,significantly fewer,decreased; also recorded: decreased the amount of farnesylated UCH-L1 in transgenic mice to levels similar to non-transgenic mice,fewer inclusions,fewer ubiquitin-immunoreactive inclusions,decreased levels of α-synuclein protein,lower α-synuclein protein levels,lower α-synuclein protein levels,–,–,–,–,–,–,–,–,–,–,–,–
C#Cc1cccc(-c2cc(=O)n(C)c3ccc(C(O)(c4ccc(Cl)cc4)c4cncn4C)cc23)c1 (centres unmarked) [OSI-754],–,–,–,–,–,–,–,–,fewer,fewer,fewer,fewer,decreased the amount of farnesylated UCH-L1,lower α-synuclein protein levels,lower α-synuclein protein levels,lower α-synuclein protein levels,lower α-synuclein protein levels,lower α-synuclein protein levels,lower α-synuclein protein levels,did not affect neuronal morphology or density
